System: bladder control problems (urinary frequency, nocturia, stress incontinence, interstitial cystitis)
Experiment: Case studies
Format: in vivo, human
Procedure: person with a history of bladder frequency since childhood. They were diagnosed as a child, via cystometric studies, as having a small bladder. They were not medicated.
They presented urinary frequency, every 1.5 hours; nocturia (waking for the toilet at night) every 1.5 to 2.5 hours.
If consumed large quantities of alcohol (greater than 8 standard drinks), would experience flooding nocturesis (bed wetting). […]
person with stress incontinence (2-7 times daily) and urinary frequency (11 times daily). […] When presented, they were using oxybutynin patches (Oxytrol). A specialist recommended that they change patches every 3 days.
Person presented with interstitial cystitis that had been worsening for at least the past 5 years. They presented with penile pain (and some lower abdominal pain) that would increase in intensity the fuller their bladder, with relief on urination. As a result, they would need to urinate at least every 1.5 hours, day and night. If they went too long, the pain would increase to the point where they found it extremely difficult to walk or move. Every month, they would have an episode, usually during the night, where they would pass copious amounts of blood and some mucous from the bladder.
They would also find that every two weeks their symptom severity would increase and they would have “horrific, sharp pain all day every day” for two days. […]

| SMILES | tolerability of previously tried drugs (Case 2, patient history) | tolerability of previously tried drugs (in vivo) |
| --- | --- | --- |
| CCN(CC)CC#CCOC(=O)C(O)(c1ccccc1)C1CCCCC1 (centres unmarked) [oxybutynin] | could not tolerate the side effects of dry mouth and nasal passages | – |
| Cc1ccc(O)c([C@H](CCN(C(C)C)C(C)C)c2ccccc2)c1 [Detrol] | – | could not tolerate the side effects of dry mouth and nasal passages |

— patent US11110141B2, “Herbal compositions for the prevention or treatment of urinary incontinence and overactive bladder” (Rox IP Pty Ltd., priority 2011, dated 2021)
